Test results as given in ChEMBL document CHEMBL3885861, “Open TG-GATES”.

Species on record: Rattus norvegicus
Experiment: Open TG-GATES - Regimen: Single
Type: toxicity, organism-based, Sprague-Dawley
Parameters: regimen Single, gender Male, age 6 weeks
Conditions: in vivo, po, 300 mg/kg, route gavage, dose level High; for APTT / Bas / Eos / Fbg / Hb / Ht / Lym / MCH / MCHC / MCV / Mono / Neu / PT / Plat / RBC / Ret / WBC: tissue Blood; for KIDNEY_L / KIDNEY_R / KIDNEY_TOTAL: tissue Kidney; for LIVER: tissue Liver; for A/G / ALP / ALT / AST / BUN / CRE / Ca / Cl / DBIL / GLC / IP / K / LDH / Na / PL / RALB / TBIL / TC / TG / TP / gamma-GTP: tissue Plasma

## C[C@]12CCC(=O)C=C1CC[C@@H]1[C@@H]2CC[C@@]2(C)[C@H]1CC[C@]2(C)O [METHYLTESTOSTERONE]
3 h
  TERMINAL_BW: 199.1 g
  APTT: 18.1 s
  Bas: 0%
  Eos: 0.8%
  Fbg: 279.8 mg/dL
  Hb: 13.1 g/dL
  Ht: 38.1%
  Lym: 74%
  MCH: 21.3 pg
  MCHC: 34.4%
  MCV: 62.1 fL
  Mono: 3.2%
  Neu: 21.2%
  PT: 12.9 s
  Plat: 116.5 x10_4/uL
  RBC: 614.2 x10_4/ul
  Ret: 8.5%
  WBC: 82.4 x10_2/uL
  KIDNEY_L: 0.9 g
  KIDNEY_R: 0.9 g
  KIDNEY_TOTAL: 1.8 g
  LIVER: 8.5 g
  A/G: 0.9
  ALP: 1496.8 IU/L
  ALT: 40 IU/L
  AST: 74.6 IU/L
  BUN: 10.6 mg/dL
  CRE: 0.2 mg/dL
  Ca: 10.6 mg/dL
  Cl: 105.4 meq/L
  DBIL: 0.012 mg/dL
  GLC: 188.2 mg/dL
  IP: 9.6 mg/dL
  K: 4.3 meq/L
  LDH: 66 IU/L
  Na: 140.8 meq/L
  PL: 135.2 mg/dL
  RALB: 2.5 g/dL
  TBIL: 0.05 mg/dL
  TC: 75 mg/dL
  TG: 41.2 mg/dL
  TP: 5.4 g/dL
  gamma-GTP: 1.2 IU/L
6 h
  TERMINAL_BW: 201.8 g
  APTT: 18.2 s
  Bas: 0%
  Eos: 0.8%
  Fbg: 274.8 mg/dL
  Hb: 12.9 g/dL
  Ht: 37.7%
  Lym: 76.4%
  MCH: 21.3 pg
  MCHC: 34.3%
  MCV: 62 fL
  Mono: 3%
  Neu: 19.6%
  PT: 13.4 s
  Plat: 114.3 x10_4/uL
  RBC: 608.4 x10_4/ul
  Ret: 7.9%
  WBC: 66.5 x10_2/uL
  KIDNEY_L: 0.9 g
  KIDNEY_R: 0.9 g
  KIDNEY_TOTAL: 1.7 g
  LIVER: 8.1 g
  A/G: 0.9
  ALP: 1589.4 IU/L
  ALT: 45 IU/L
  AST: 77.2 IU/L
  BUN: 9 mg/dL
  CRE: 0.2 mg/dL
  Ca: 10.6 mg/dL
  Cl: 107.8 meq/L
  DBIL: 0.016 mg/dL
  GLC: 181.8 mg/dL
  IP: 9.6 mg/dL
  K: 4.2 meq/L
  LDH: 67.8 IU/L
  Na: 141.6 meq/L
  PL: 120 mg/dL
  RALB: 2.5 g/dL
  TBIL: 0.054 mg/dL
  TC: 57.8 mg/dL
  TG: 40.8 mg/dL
  TP: 5.4 g/dL
  gamma-GTP: 1.2 IU/L
9 h
  TERMINAL_BW: 203.1 g
  APTT: 17.8 s
  Bas: 0%
  Eos: 1%
  Fbg: 269.8 mg/dL
  Hb: 12.7 g/dL
  Ht: 37.2%
  Lym: 74.4%
  MCH: 21.5 pg
  MCHC: 34.1%
  MCV: 62.9 fL
  Mono: 2.8%
  Neu: 21.8%
  PT: 13.7 s
  Plat: 105 x10_4/uL
  RBC: 592.4 x10_4/ul
  Ret: 8.5%
  WBC: 70.7 x10_2/uL
  KIDNEY_L: 0.9 g
  KIDNEY_R: 0.9 g
  KIDNEY_TOTAL: 1.8 g
  LIVER: 8.1 g
  A/G: 0.9
  ALP: 1500.8 IU/L
  ALT: 36.6 IU/L
  AST: 70.6 IU/L
  BUN: 7.8 mg/dL
  CRE: 0.2 mg/dL
  Ca: 10.5 mg/dL
  Cl: 107.6 meq/L
  DBIL: 0.02 mg/dL
  GLC: 182.4 mg/dL
  IP: 10.7 mg/dL
  K: 4.3 meq/L
  LDH: 59 IU/L
  Na: 142.4 meq/L
  PL: 103.2 mg/dL
  RALB: 2.5 g/dL
  TBIL: 0.06 mg/dL
  TC: 46.2 mg/dL
  TG: 49 mg/dL
  TP: 5.3 g/dL
  gamma-GTP: 1 IU/L
24 h
  TERMINAL_BW: 203 g
  APTT: 20.8 s
  Bas: 0%
  Eos: 1%
  Fbg: 267.4 mg/dL
  Hb: 13.1 g/dL
  Ht: 37.8%
  Lym: 83%
  MCH: 22 pg
  MCHC: 34.5%
  MCV: 63.7 fL
  Mono: 2.6%
  Neu: 13%
  PT: 13.8 s
  Plat: 116.9 x10_4/uL
  RBC: 593.2 x10_4/ul
  Ret: 7.7%
  WBC: 89.5 x10_2/uL
  KIDNEY_L: 0.9 g
  KIDNEY_R: 0.9 g
  KIDNEY_TOTAL: 1.8 g
  LIVER: 10.2 g
  A/G: 0.9
  ALP: 1864.8 IU/L
  ALT: 48.8 IU/L
  AST: 77.6 IU/L
  BUN: 16.8 mg/dL
  CRE: 0.2 mg/dL
  Ca: 10.9 mg/dL
  Cl: 107.8 meq/L
  DBIL: 0.034 mg/dL
  GLC: 185.2 mg/dL
  IP: 7.6 mg/dL
  K: 4.3 meq/L
  LDH: 71 IU/L
  Na: 142 meq/L
  PL: 126.6 mg/dL
  RALB: 2.6 g/dL
  TBIL: 0.032 mg/dL
  TC: 45.4 mg/dL
  TG: 238 mg/dL
  TP: 5.6 g/dL
  gamma-GTP: 1.2 IU/L
